Holding throughout (format): in vivo
Data set [1] relates to Nilaparvata lugens (brown plant hopper - nymphs). In words: Contact test, mortality of Nilaparvata lugens nymphs on Rice plant (NL). As to conditions: 72 h, 3 days, read-out: grading of mortality, NL. The protocol: (§1) The activity of the Product was determined using a variety of insect pests The Product was used in the form of liquid preparations containing from 100 to 500 parts per million (ppm) by weight of the Product. The preparations were made by dissolving the Product in acetone and diluting the solutions with water containing 0.1% by weight of a wetting agent sold under the trade name "SYNPERONIC" NX until the liquid preparations contained the required concentration of the Product "SYNPERONIC" is a Registered Trade Mark.
(§2) The test procedure adopted with regard to each pest was basically the same and comprised supporting a number of the pests on a medium which was usually a host plant or a foodstuff on which the pests feed, and treating either or both the pests and the medium with the preparations. The mortality of the pests was then assessed at periods usually varying from one to seven days after the treatment.
(§3) The results of the tests are given in Table III for each of the Products, at the rate in parts per million given in the second column as a grading of mortality designated as A, B or C wherein A indicates 80-100% mortality or knockdown, B indicates 50-79% mortality knockdown or knockdown and C indicates less than 50% mortality or knockdown.
(§4) In Table III the pest organism used is designated by a letter code and the pests species, the support medium or food, and the type and duration of test is given in Table II.

In data set [2] the test system is Tetranychus urticae (spider mites - adult). The data set is described as follows: Contact test, mortality of Tetranychus urticae adults on French bean leaf (TUa). Particulars: 72 h, 3 days, read-out: grading of mortality, TuA. How it is done: as §1, §2, §3, §4
For the next data set, the system named is Myzus persicae (aphids). The data set is described as follows: Contact test, mortality of Myzus persicae on Chinese Cabbage leaf (MP). Particulars: 72 h, 3 days, read-out: grading of mortality, MP. The protocol: as §1, §2, §3, §4
Data set [3] deals with Heliothis virescens (tobacco budworm - larvae). In words: whole plant or invertebrate. As to conditions: in Gossypium hirsutum, 72 h, read-out: grading of mortality, HV. The protocol: as §1, §2, §3, §4
(tobacco budworm - larvae)

Data set [4] has as its system Musca domestica (houseflies - adults). In words: Contact test, mortality of Musca domestica adults (MD). Particulars: 24 h, 1 day, read-out: grading of mortality, MD. How it is done: as §1, §2, §3, §4
Data set [5] deals with Blattela germanica (cockroach nymphs). The data set is described as follows: Residual test, mortality of Blattela germanica nymphs (BG). Particulars: 3 days. The protocol: as §1, §2, §3, §4
In data set [6] the test system is Diabrotica balteata (rootworm larvae). In words: Residual test, mortality of Diabrotica balteata larvae, Filter paper/maize seed (DB). As to conditions: 72 h, 3 days, read-out: grading of mortality, DB. How it is done: as §1, §2, §3, §4
In data set [7] the test system is Tetranychus urticae (spider mites - ova). The data set is described as follows: Contact test, mortality of Tetranychus urticae ova on French bean leaf (TUe). Particulars: 144 h, 6 days, read-out: grading of mortality, TuE. How it is done:
as §1, §2, §3, §4

Data set [8] deals with Spodoptera exigua (lesser army worm - larvae). The data set is described as follows: Residual test, mortality of Spodoptera exigua larvae on Cotton leaf (SP). As to conditions: 72 h, 3 days, read-out: grading of mortality, SP. The protocol: as §1, §2, §3, §4
(lesser army worm - larvae)

The structures appear in SMILES notation. Where only a bound is given, the exact number is not on record here.

For `CCOc1ccc(C(COCc2cccc(Oc3ccc(Cl)cc3)c2)C(F)(F)F)cc1` (racemic) [Compound 3, (RS)-1,1,1-trifluoro-2-(4-ethoxyphenyl)-3-[3-(4-chlorophenoxy)benzyloxy]propane], the mortality at 250 ppm in data set [1] (250 ppm) was 80 to 100%; in [2] (250 ppm) it was less than 50%; in the data set on Myzus persicae (aphids) (250 ppm) it was 80 to 100%; in [3] it was less than 50%; in data set [4] (250 ppm) it was 80 to 100%; in [6] (250 ppm) it was 80 to 100%. In addition, in data set [5] (250 ppm), the “grading of mortality, BG” value was “A (80-100% mortality or knockdown)”.
Take `CCOc1ccc(C(COCc2ccc(F)c(Oc3ccc(Cl)cc3)c2)C(F)(F)F)cc1` (racemic) [Compound 5, (RS)-1,1,1-trifluoro-2-(4-ethoxyphenyl)-3-[3-(4-chlorophenoxy)-4-fluorobenzyloxy]propane]: the mortality at 500 ppm was in the range of 80 to 100% in [1]; 50 to 79% in data set [2]; 80 to 100% in the data set with Myzus persicae (aphids); 80 to 100% in [3]; 80 to 100% in data set [4]; 80 to 100% in data set [6]. Besides, the “grading of mortality, BG” value in [5] (500 ppm) is listed as “A (80-100% mortality or knockdown)”.
Regarding `Fc1ccc(COCC(c2ccc(OC(F)(F)F)cc2)C(F)(F)F)cc1Oc1ccc(Cl)cc1` (racemic) [Compound 29, (RS)-1,1,1-Trifluoro-2-(4-trifluoromethoxyphenyl)-3-[3-(4-chlorophenoxy)-4-fluorobenzyloxy]propane], the mortality at 500 ppm (in [1]; in [7]; in data set [8]; in [2]; in the data set on Myzus persicae (aphids); in data set [3]) was 80 to 100% throughout. Moreover, the mortality at 500 ppm in data set [4] and in [6] was 80 to 100% throughout. Further, the “grading of mortality, BG” value in [5] (500 ppm) is given as “A (80-100% mortality or knockdown)”.
As for `Fc1ccc(COCC(c2ccc(C(F)(F)F)cc2)C(F)(F)F)cc1Oc1ccccc1` (racemic) [Compound 38, (RS)-1,1,1-Trifluoro-2-(4-trifluoromethylphenyl)-3-(3-phenoxy-4-fluorobenzyloxy) propane], the mortality at 500 ppm (in data set [1]; in data set [7]; in data set [8]; in data set [2]; with Myzus persicae (aphids); in data set [3]) was 80 to 100% throughout. The mortality at 500 ppm in data set [4] and in data set [6] was 80 to 100% throughout. For the same compound, the “grading of mortality, BG” value in [5] (500 ppm) is “A (80-100% mortality or knockdown)”.
`FC(F)(F)c1ccc(C(COCc2cccc(Oc3ccccc3)c2)C(F)(F)F)cc1` (racemic) [Compound 39, (RS)-1,1,1-Trifluoro-2-(4-trifluoromethylphenyl)-3-(3-phenoxybenzyloxy)propane]: the mortality at 500 ppm in data set [1] was 80 to 100%; in data set [7], 80 to 100%; in [8] it was 80 to 100%; in data set [2], less than 50%; with Myzus persicae (aphids), 80 to 100%; in data set [3], 80 to 100%. The mortality at 500 ppm in data set [4] and in [6] was 80 to 100% in each case. The “grading of mortality, BG” value in data set [5] (500 ppm) is listed as “A (80-100% mortality or knockdown)”.

For orientation: mortality means the percentage killed.

Source of the values: US4891450A, “Process for intermediates for insecticidal compounds” (Imperial Chemical Industries PLC, priority 1987, dated 1990).
